Earlier results as cited in publication PMC8780741, “Integration of In Silico, In Vitro and In Situ Tools for the Preformulation and Characterization of a Novel Cardio-Neuroprotective Compound during the Early Stages of Drug Development” (Pharmaceutics, 2022).

Parameters: method as in PMID 15832504
Details: reference compound for the permeability cut-off; cited from earlier work

**Q.** For `COCCc1ccc(OCC(O)CNC(C)C)cc1` (stereo not shown) [Metoprolol], which logP is on record?
**A.** 1.72
